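Test compounds were applied to cells in 96-well plates for 48 hours at 5 doses. The concentration for 50% growth inhibition is given as GI50. At the TGI there is no net growth.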

Assay in all cases: NCI anticancer screen, dose series, 48 h
The subject of test [1] is SK-OV-3 ovarian.
For test [2], the system named is SF-295 CNS.
Test [3] concerns HCT-15 colon.
Test [4] concerns SK-MEL-5 melanoma.
Test [5] has as its system UACC-62 melanoma.
Test [6] concerns LOX IMVI melanoma.
Test [7] concerns HOP-92 NSCLC.
Test [8] relates to CAKI-1 renal.
Test [9] concerns RXF 393 renal.

For the compound `CC1OC(n2cc(I)c(=O)[nH]c2=O)C=CC1=O` (configuration not stated), the TGI in test [1] was 73.2 µM; in test [2], 32.5 µM; in [3], 32.3 µM; in test [4] it was 29.5 µM; in test [5] it was 31.2 µM; in [6], 19.6 µM. Further, the TGI in test [7] stood at 33.9 µM; in test [8], 29.5 µM.

With `CC1=C2[C@@H](c3ccccc3)C3C=CC2(c2ccccc23)N(C(=O)Nc2cccc3ccccc23)C1=O` (some centres not stated), the TGI in test [1], in test [2], in [3], in test [4], in [5] and in test [6] was over 100 µM throughout. The TGI in test [7] and in test [8] was over 100 µM throughout.

As for `C[CH2][Sn]([Cl])([CH2]C)[CH2]C`, the GI50 in test [1] is 1470 nM; in test [2], 1410 nM; in test [3], 637 nM; in test [4], 761 nM; in test [5] it was 0.515 µM; in [6] it was 386 nM. In addition, the GI50 in [7] is 0.186 µM. Besides, the TGI was 5.8 µM in test [1]; 3.92 µM in [2]; 5.79 µM in test [3]; 2.26 µM in [4]; 11.5 µM in test [5]; 2.06 µM in [6]. Besides, the TGI in test [7] came to 0.689 µM.

In the case of `CO[C@]12CCC(=O)N1C=Cc1c2[nH]c2ccccc12`, the TGI in [2], in test [3], in test [9], in [4], in test [5] and in test [6] was over 100 µM each time. For the same compound, the TGI in [7] and in test [8] was over 100 µM throughout.

As for `CN1CCc2cc(O)c3cc2C1Cc1ccc(cc1)Oc1cc(ccc1O)CC1c2c(cc4c(c2O3)OCO4)CCN1C` (configuration not stated), the TGI in test [2] is 43.6 µM; in test [3], 60 µM; in [9], 60.2 µM; in test [4], 33.1 µM; in test [5], 47.5 µM.

Consider `N#Cc1nc(Nc2ccc(Cl)cc2)sc1N`, for which the TGI is over 100 µM in [1]; 42 µM in [2]; over 94.6 µM in test [3]; 6.41 µM in [4]; 42.8 µM in test [5]; 13.7 µM in test [6]. For the same compound, the TGI is 52.1 µM in test [7] and 45.1 µM in [8].

In the case of `Cc1ccc(S(=O)(=O)NC(=O)C#CCOC2CCCCO2)cc1` (configuration not stated), the TGI in test [2], in [3], in test [9], in test [4], in test [5] and in test [6] was over 100 µM in each case. In addition, the TGI in test [7] and in test [8] was over 100 µM in each case.

On to `CC(C)N(C(=O)C12C3C4C5C3C1(C#N)C5C42)C(C)C` (configuration not stated), for which the TGI in [1], in test [2], in [3], in test [4], in [5] and in [6] was over 100 µM each time. Besides, the TGI in [7] and in test [8] was over 100 µM each time.

Turning to `COc1ccc2c([nH]c3cc(O)c(C)cc32)c1CC=C(C)C`, the TGI in [1] was over 25 µM; in [3] it was over 25 µM; in test [4] it was over 25 µM; in test [5], over 25 µM; in [6] it was 7.8 µM; in test [7] it was over 25 µM. Besides, the GI50 was 5140 nM in test [3]; 8040 nM in test [4]; 9.11 µM in test [5]; 4360 nM in test [6]; 8.03 µM in test [7].

On to `Cc1cc2c(=O)c3ccccc3oc2c(C#N)c1C`, for which the TGI in [1], in [2], in [9], in test [4], in test [7] and in [8] was over 100 µM each time.

On to `COC(=O)C1=C(C)N(NC(=O)c2cccc(Cl)c2)C(C)(O)C12CCOC2=O` (configuration not stated), for which the TGI in test [1], in [2], in [3], in test [4], in [5] and in [6] was over 100 µM throughout. In addition, the TGI in [8] is over 100 µM.

For the compound `C[C@]12CC/C(=N\OC(=O)Nc3ccccc3)C=C1CC[C@@H]1C2CC[C@@]2(C)C1CC[C@@H]2OC(=O)Nc1ccccc1` (some centres not stated), the TGI is over 100 µM in [1]; over 100 µM in [2]; 14.2 µM in test [3]; over 100 µM in test [4]; over 100 µM in test [5]; over 100 µM in test [6]. The TGI in test [7] was over 100 µM; in [8] it was 19.8 µM.

Turning to `Cc1cn2c(/C=N/N=C(N)N)c(-c3cc(Cl)sc3Cl)nc2s1`, the GI50 in test [1] is 1150 nM; in [3] it was 1840 nM; in test [4], 905 nM; in test [8], 6.18 µM. Besides, the TGI was 2.78 µM in [1], 8.55 µM in [3], 1.74 µM in test [4] and 26 µM in test [8].

The record behind these values is PubChem BioAssay (NCI).
